Laboratory results from patent US12102685B2, “Immodulator peptides covalently modified with small molecules” (priority 2020, dated 2024).
Peptide text beside a SMILES is read from it.

Key:
[1] = Iron binding of separately labeled peptides (x2E e); details: each peptide labeled separately; IM3 = 100; ferric iron
Description: (§1) Experiments were conducted by the procedure described above. Ferric iron-charged NTA-coated 96-well plates were used as described. 1 ug/well immodulator peptide complexed to Alexa-488-labeled streptavidin in PBS buffer was added (60 min at room temperature). The plate was washed and counted in a standard fluorometer (excitation/emission: 485/525 nm). The results (fluorescence) show improved iron-binding by the three peptides extended C-terminally by the AVD, (dA)VD, and FVS tripeptides. **p<0.01 vs IM3 control IM3: 200±29; IM4: 45±37**; IM5: 130±77; IM3AVD: 434±29**; IM3dAVD: 418±28**; IM3FVS: 371±33** • (c) Competition assay. The same procedure was used as the preceding experiment, except that 375 ng/well labeled IM3 peptide was used, plus 10× of the indicated unlabeled peptide. ‘No competing peptide’ control value was set to 100. *p<0.05 vs “no peptide” control Competing Peptide/Fluorescence • None: 100±38; IM4: 125±26; IM3: 63±27*; IM5: 40±14*; IM3AVD: 10±28* • (d) Competition assay. The same procedure was used as the preceding experiment, except that labeled IM3AVD peptide was used. **p<0.01 vs “no competing peptide” control • None: 100±9; IM4: 144±44; IM3: 35±16**; IM5: 30±19**; IM3AVD: 9±19** • (e) The same procedure was used as the preceding experiment, except that each peptide was labeled with Alexa-488-labeled streptavidin in PBS buffer and used separately. Binding to IM3 was set to =100. *p<0.05, **p<0.01 vs IM3 control. (Labeled Peptide/Fluorescence) IM1: 1.8±0.4**; IM2: 3.0±1.8**; IM3: 100.0±16.8; IM4: 7.2±1.7*; IM5: 86.7±6.4; IM6: 85.9±14.9; IM3AVD:137.7±11.8*; IM3dAVD:147.4±22.9*; IM3FVS: 101.5±10.5.

[2] = Binding to Echelon PPI Arrays (x9B); design: key: 0=no binding; 1=low binding; 2=medium binding; 3=high binding; details: 100 pmol PPI spot, colorimetric readout
From the text: Binding of immodulator peptides to Echelon PPI Arrays. PPI arrays were purchased from Echelon Biosciences (Sal Lake City, UT) and used according to the manufacturer's recommendations. Colorimetric readout from each 100 pmol PPI spot in the array is expressed as 0=no binding, 1=low binding, 2=medium binding and 3=high binding. […] In addition, IM3 and IM5 show slight binding to PI(3,4,5)P3.

[3] = tested on: A375 cells; assay: A375 cell viability, CellTiterGlo (x10A); type: cell-based; details: peptide 2 uM, Buffer, 72 hours
Description: Immune modulation functions of immodulator peptides have great potential untility in the field of cancer. A375 cell line was obtained from American Type Culture Collection (ATCC). They were grown in a T-75 flask in DMEM Medium containing 10% fetal bovine serum and penicillin-streptomycin at 37° C. in a humidified, 5% CO2 incubator. Cells ([…], 2,000 cells/well) were plated in a 96-well plate and incubated overnight at 37° C. in a humidified, 5% CO2 incubator. Next day, […] of compounds were added (quadruplicate wells). After 72 hour incubation with the compound, cell viability was measured in a luminometer after the addition of […] CellTiterGlo reagent (Promega Inc, Madison, WI) as recommended by the manufacturer.
Experiment x10A. Anti-cancer activity of immodulator peptides on A375 cells. A 96-well plate was seeded with 2,000 A375 cells per well in DMEM medium containing 10% FBS and PenStrep. After 24 hrs at 37 deg C., compounds and peptides were added (each treatment done in quadruplicate). After a further 72 hours incubation, 100 uL/well of CTG assay reagent purchased from Promega Inc. (Madison, WI) was added. Plate was read after 10 minutes, as recommended by the manufacturer. Peptides were added at 2 uM. The results of this experiment are shown below, expressed as percent survival ofA375 cells.

[4] = FITC-PI(4)P1 binding to plate-bound peptide with calcium (x9A)
Description: Immodulator peptides IM1, IM3 and IM5 (400 ng/well) in PBS were bound to streptavidin-coated 96-well plates at room temperature for 60 minutes, in the presence or absence of 500 uM calcium chloride. Each well also received 200 ng cold PPI plus 10 ng FITC-labeled PI(4,5)P2 or PI(4)P1. The tables below show the relative fluorescence (with/without calcium background) expressed as a percentage of the highest binder, FITC-PI(4,5)P2+cold PI(3,5)P2, which was 2,496 fluorescence units. Background binding without calcium was, in all cases, 200-300 fluorescence units.

[5] = target: T1, AA111-228 DNA-binding domain of RXR-alpha (RXRa-DBD) (Homo sapiens, UniProt P19793); assay: Binding to RXRa-DBD (x3A); details: 1 ug/well RXRa-DBD, 800 ng/well SA488-labelled peptide; background subtracted
T1 construct: purchased Abcam, Cambridge, MA
T1 sequence (P19793 111-228): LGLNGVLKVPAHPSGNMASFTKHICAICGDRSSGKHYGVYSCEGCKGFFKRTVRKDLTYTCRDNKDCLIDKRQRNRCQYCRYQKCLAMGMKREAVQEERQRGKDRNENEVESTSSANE
Description: Binding of immodulator peptides to AA111-228 DNA-binding domain of RXR-alpha (RXRa-DBD). 1 ug/well recombinant RXRa-DBD (Abcam, Cambridge, MA) was adsorbed to wells of a 96-well plate for 60 minutes at RT, then blocked with 200 uL 1% BSA in PBS buffer overnight. Plate was washed and 800 ng/well Streptavidin-Alexa 488 conjugate (SA488)-labelled IM peptide was added. The plate was incubated for 60 min at room temperature, washed and counted in a standard fluorometer (excitation/emission 485/525 nm). Background (buffer alone) was subtracted.

[6] = Strength of binding to iron, plate assay (x2E b); details: 1 ug/well peptide complexed to Alexa-488-streptavidin; ferric iron
Description: Immodulator peptides were extended C-terminally by three amino acids, to include a valine residue that is highly conserved in the “thyroglobulin type 1 motif”. The reasoning behind this attempt is that a longer conserved sequence might lead to a tighter fold overall, which might in turn result in increased metal-binding avidity. • (b) Strength of binding to iron was evaluated by plate assay.
as §1

[7] = Iron-binding competition assay with labeled IM3 (x2E c); details: 375 ng/well labeled IM3 plus 10x unlabeled peptide; no competing peptide = 100
Description: as §1

SMILES	fluorescence of labeled peptide [1]	binding to PI spot [2]	binding to PI(3,4,5)P3 spot [2]	binding to PI(4)P1 spot [2]	binding to PI(4,5)P2 spot [2]	percent survival of A375 cells [3] [%]	relative fluorescence, FITC-PI(4)P1 bound ([4]; cold PPI: 3,4,5-P3)	relative fluorescence, FITC-PI(4)P1 bound ([4]; cold PPI: 3,4-P2)	relative fluorescence, FITC-PI(4)P1 bound ([4]; cold PPI: 3,5-P2)	relative fluorescence, FITC-PI(4)P1 bound ([4]; cold PPI: 3-P1)	relative fluorescence, FITC-PI(4)P1 bound ([4]; cold PPI: 4,5-P2)	relative fluorescence, FITC-PI(4)P1 bound ([4]; cold PPI: 4-P1)	relative fluorescence, FITC-PI(4)P1 bound ([4]; cold PPI: 5-P1)	relative fluorescence, FITC-PI(4)P1 bound ([4]; cold PPI: None)	fluorescence [5]	fluorescence (iron binding) [6]	fluorescence of labeled IM3 with competing peptide [7]
CSCC[C@H](NC(=O)[C@H](CO)NC(=O)[C@@H](NC(=O)[C@H](CCC(=O)O)NC(=O)[C@H](CS)NC(=O)[C@H](CCC(N)=O)NC(=O)[C@H](CCCNC(=N)N)NC(=O)[C@H](CO)NC(=O)[C@H](Cc1c[nH]cn1)NC(=O)[C@H](Cc1ccc(O)cc1)NC(=O)[C@H](Cc1ccccc1)NC(=O)CNC(=O)[C@H](CC(N)=O)NC(=O)[C@@H](N)CCCCN)[C@@H](C)O)C(=O)N[C@@H](CC(=O)O)C(=O)NCC(=O)N[C@@H](CCC(=O)O)C(=O)N[C@@H](C)C(=O)NCC(=O)N[C@@H](CC(C)C)C(=O)N[C@@H](CS)C(=O)N[C@@H](Cc1c[nH]c2ccccc12)C(=O)O [IM1] (H-KNGFYHSRQCETSMDGEAGLCW-OH; N-terminus and C-terminus assumed)	1.8±0.4	0	0	0	0	102.1	0.1 percentage of the highest binder	2.6 percentage of the highest binder	4.3 percentage of the highest binder	3.1 percentage of the highest binder	0.8 percentage of the highest binder	2.7 percentage of the highest binder	0.5 percentage of the highest binder	1.6 percentage of the highest binder	670±85		
CSCC[C@H](NC(=O)[C@H](CCCCN)NC(=O)[C@H](CS)NC(=O)[C@H](CCC(N)=O)NC(=O)[C@H](CCCCN)NC(=O)[C@H](CC(C)C)NC(=O)[C@H](CC(N)=O)NC(=O)[C@H](Cc1ccc(O)cc1)NC(=O)[C@H](CC(C)C)NC(=O)CNC(=O)[C@H](Cc1c[nH]cn1)NC(=O)[C@@H](N)CCCCN)C(=O)N[C@@H](CO)C(=O)N[C@@H](CC(C)C)C(=O)N[C@@H](CC(N)=O)C(=O)NCC(=O)N[C@@H](CCC(N)=O)C(=O)N[C@@H](CCCNC(=N)N)C(=O)NCC(=O)N[C@@H](CCC(=O)O)C(=O)N[C@@H](CS)C(=O)N[C@@H](Cc1c[nH]c2ccccc12)C(=O)O [IM2]	3.0±1.8	0	0	0	0	99.0									2±38		
CC(C)C[C@H](NC(=O)[C@H](C)NC(=O)[C@@H]1CCCN1C(=O)[C@H](Cc1c[nH]cn1)NC(=O)[C@H](CS)NC(=O)[C@H](CCC(N)=O)NC(=O)[C@H](CCCCN)NC(=O)[C@@H]1CCCN1C(=O)[C@H](Cc1c[nH]cn1)NC(=O)[C@H](Cc1ccccc1)NC(=O)[C@H](CC(N)=O)NC(=O)CNC(=O)[C@H](CC(N)=O)NC(=O)[C@@H](N)CCCNC(=N)N)C(=O)N[C@@H](CC(=O)O)C(=O)NCC(=O)N[C@@H](CCC(N)=O)C(=O)N[C@@H](CCCNC(=N)N)C(=O)NCC(=O)N[C@@H](CCCCN)C(=O)N[C@@H](CS)C(=O)N[C@@H](Cc1c[nH]c2ccccc12)C(=O)O [IM4] (H-RNGNFHPKQCHPALDGQRGKCW-OH; N-terminus and C-terminus assumed)	7.2±1.7	0	0	0	0	98.8									27±31	45±37	125±26
CC[C@H](C)[C@H](NC(=O)CNC(=O)[C@H](CCCNC(=N)N)NC(=O)[C@H](CCCCN)NC(=O)[C@H](CCCNC(=N)N)NC(=O)CNC(=O)[C@H](CCCNC(=N)N)NC(=O)[C@H](CO)NC(=O)[C@@H]1CCCN1C(=O)[C@H](CCCCN)NC(=O)[C@H](CS)NC(=O)[C@H](CCC(N)=O)NC(=O)[C@H](CCCCN)NC(=O)[C@H](CCCNC(=N)N)NC(=O)[C@H](CCCCN)NC(=O)[C@H](Cc1ccc(O)cc1)NC(=O)[C@H](Cc1ccccc1)NC(=O)CNC(=O)[C@H](CCCCN)NC(=O)[C@@H](N)CCCNC(=N)N)C(=O)N[C@@H](CS)C(=O)N[C@@H](Cc1c[nH]c2ccccc12)C(=O)O [IM5] (H-RKGFYKRKQCKPSRGRKRGICW-OH; N-terminus and C-terminus assumed)	86.7±6.4	0	1	2	3		1.2 percentage of the highest binder	1.7 percentage of the highest binder	1.3 percentage of the highest binder	0.9 percentage of the highest binder	1.8 percentage of the highest binder	0.8 percentage of the highest binder	0.4 percentage of the highest binder	2.1 percentage of the highest binder	6,802±336	130±77	40±14
